Measured values from ChEMBL document CHEMBL4411303, “Synthesis of tetrazole derivatives bearing pyrrolidine scaffold and evaluation of their antifungal activity against Candida albicans” (Eur J Med Chem, 2019).

Tests used:
Format in all cases: functional
Candida albicans [1] = test: Antifungal activity against Candida albicans ATCC 90028 assessed as planktonic growth inhibition at 10.87 uM after 48 hrs by M27-A3 protocol based method relative to control; conditions: ATCC 90028, 48 h, read-out: GI
Candida albicans [2] = test: Antifungal activity against Candida albicans ATCC 90028 assessed as planktonic growth inhibition at 21.75 uM after 48 hrs by M27-A3 protocol based method relative to control; conditions: ATCC 90028, 48 h, read-out: GI
Candida albicans [3] = test: Antifungal activity against Candida albicans ATCC 90028 assessed as planktonic growth inhibition at 0.08 uM after 48 hrs by M27-A3 protocol based method relative to control; conditions: ATCC 90028, 48 h, read-out: GI
Candida albicans [4] = test: Antifungal activity against Candida albicans ATCC 90028 assessed as planktonic growth inhibition at 5.44 uM after 48 hrs by M27-A3 protocol based method relative to control; conditions: ATCC 90028, 48 h, read-out: GI
Candida albicans [5] = test: Fungicidal activity against Candida albicans ATCC 90028 assessed as log reduction in fungal load incubated for 48 hrs followed by replating on sabouraud dextrose agar plate and measured after 48 hrs
Candida albicans [6] = test: Antifungal activity against Candida albicans ATCC 90028 assessed as planktonic growth inhibition at 1.36 uM after 48 hrs by M27-A3 protocol based method relative to control; conditions: ATCC 90028, 48 h, read-out: GI
Candida albicans [7] = test: Antifungal activity against Candida albicans ATCC 90028 assessed as planktonic growth inhibition at 2.72 uM after 48 hrs by M27-A3 protocol based method relative to control; conditions: ATCC 90028, 48 h, read-out: GI
Candida albicans [8] = test: Antifungal activity against Candida albicans ATCC 90028 assessed as planktonic growth inhibition at 0.34 uM after 48 hrs by M27-A3 protocol based method relative to control; conditions: ATCC 90028, 48 h, read-out: GI
Candida albicans [9] = test: Antifungal activity against Candida albicans ATCC 90028 assessed as planktonic growth inhibition at 0.17 uM after 48 hrs by M27-A3 protocol based method relative to control; conditions: ATCC 90028, 48 h, read-out: GI
Candida albicans [10] = test: Antifungal activity against Candida albicans ATCC 90028 assessed as planktonic growth inhibition at 43.49 uM after 48 hrs by M27-A3 protocol based method relative to control; conditions: ATCC 90028, 48 h, read-out: GI
Candida albicans [11] = test: Antifungal activity against Candida albicans ATCC 90028 assessed as planktonic growth inhibition at 0.68 uM after 48 hrs by M27-A3 protocol based method relative to control; conditions: ATCC 90028, 48 h, read-out: GI
Candida albicans [12] = test: Antifungal activity against Candida albicans ATCC 90028 assessed as planktonic growth inhibition at 0.33 uM after 48 hrs by M27-A3 protocol based method relative to control; conditions: ATCC 90028, 48 h, read-out: GI
Candida albicans [13] = test: Antifungal activity against Candida albicans ATCC 90028 assessed as planktonic growth inhibition at 10.47 uM after 48 hrs by M27-A3 protocol based method relative to control; conditions: ATCC 90028, 48 h, read-out: GI
Candida albicans [14] = test: Antifungal activity against Candida albicans ATCC 90028 assessed as planktonic growth inhibition at 5.24 uM after 48 hrs by M27-A3 protocol based method relative to control; conditions: ATCC 90028, 48 h, read-out: GI
Candida albicans [15] = test: Antifungal activity against Candida albicans ATCC 90028 assessed as planktonic growth inhibition at 0.65 uM after 48 hrs by M27-A3 protocol based method relative to control; conditions: ATCC 90028, 48 h, read-out: GI
Candida albicans [16] = test: Antifungal activity against Candida albicans ATCC 90028 assessed as planktonic growth inhibition at 0.16 uM after 48 hrs by M27-A3 protocol based method relative to control; conditions: ATCC 90028, 48 h, read-out: GI
Candida albicans [17] = test: Antifungal activity against Candida albicans ATCC 90028 assessed as planktonic growth inhibition at 20.95 uM after 48 hrs by M27-A3 protocol based method relative to control; conditions: ATCC 90028, 48 h, read-out: GI
Candida albicans [18] = test: Antifungal activity against Candida albicans ATCC 90028 assessed as planktonic growth inhibition at 41.9 uM after 48 hrs by M27-A3 protocol based method relative to control; conditions: ATCC 90028, 48 h, read-out: GI
Candida albicans [19] = test: Antifungal activity against Candida albicans ATCC 90028 assessed as planktonic growth inhibition at 2.62 uM after 48 hrs by M27-A3 protocol based method relative to control; conditions: ATCC 90028, 48 h, read-out: GI
Candida albicans [20] = test: Antifungal activity against Candida albicans ATCC 90028 assessed as planktonic growth inhibition at 1.31 uM after 48 hrs by M27-A3 protocol based method relative to control; conditions: ATCC 90028, 48 h, read-out: GI
Candida albicans [21] = test: Antifungal activity against Candida albicans ATCC 90028 assessed as planktonic growth inhibition at 46.05 uM after 48 hrs by M27-A3 protocol based method relative to control; conditions: ATCC 90028, 48 h, read-out: GI
Candida albicans [22] = test: Antifungal activity against Candida albicans ATCC 90028 assessed as planktonic growth inhibition at 0.36 uM after 48 hrs by M27-A3 protocol based method relative to control; conditions: ATCC 90028, 48 h, read-out: GI
Candida albicans [23] = test: Antifungal activity against Candida albicans ATCC 90028 assessed as planktonic growth inhibition at 0.18 uM after 48 hrs by M27-A3 protocol based method relative to control; conditions: ATCC 90028, 48 h, read-out: GI
Candida albicans [24] = test: Antifungal activity against Candida albicans ATCC 90028 assessed as planktonic growth inhibition at 0.72 uM after 48 hrs by M27-A3 protocol based method relative to control; conditions: ATCC 90028, 48 h, read-out: GI
Candida albicans [25] = test: Antifungal activity against Candida albicans ATCC 90028 assessed as planktonic growth inhibition at 1.44 uM after 48 hrs by M27-A3 protocol based method relative to control; conditions: ATCC 90028, 48 h, read-out: GI
Candida albicans [26] = test: Antifungal activity against Candida albicans ATCC 90028 assessed as planktonic growth inhibition at 0.09 uM after 48 hrs by M27-A3 protocol based method relative to control; conditions: ATCC 90028, 48 h, read-out: GI
Candida albicans [27] = test: Antifungal activity against Candida albicans ATCC 90028 assessed as planktonic growth inhibition at 11.51 uM after 48 hrs by M27-A3 protocol based method relative to control; conditions: ATCC 90028, 48 h, read-out: GI
Candida albicans [28] = test: Antifungal activity against Candida albicans ATCC 90028 assessed as planktonic growth inhibition at 23.02 uM after 48 hrs by M27-A3 protocol based method relative to control; conditions: ATCC 90028, 48 h, read-out: GI
Candida albicans [29] = test: Antifungal activity against Candida albicans ATCC 90028 assessed as planktonic growth inhibition at 5.76 uM after 48 hrs by M27-A3 protocol based method relative to control; conditions: ATCC 90028, 48 h, read-out: GI
Candida albicans [30] = test: Antifungal activity against Candida albicans ATCC 90028 assessed as planktonic growth inhibition at 2.88 uM after 48 hrs by M27-A3 protocol based method relative to control; conditions: ATCC 90028, 48 h, read-out: GI
Candida albicans [31] = test: Antifungal activity against Candida albicans ATCC 90028 assessed as planktonic growth inhibition at 19.88 uM after 48 hrs by M27-A3 protocol based method relative to control; conditions: ATCC 90028, 48 h, read-out: GI
Candida albicans [32] = test: Antifungal activity against Candida albicans ATCC 90028 assessed as planktonic growth inhibition at 4.97 uM after 48 hrs by M27-A3 protocol based method relative to control; conditions: ATCC 90028, 48 h, read-out: GI
Candida albicans [33] = test: Antifungal activity against Candida albicans ATCC 90028 assessed as planktonic growth inhibition at 0.31 uM after 48 hrs by M27-A3 protocol based method relative to control; conditions: ATCC 90028, 48 h, read-out: GI
Candida albicans [34] = test: Antifungal activity against Candida albicans ATCC 90028 assessed as planktonic growth inhibition at 9.94 uM after 48 hrs by M27-A3 protocol based method relative to control; conditions: ATCC 90028, 48 h, read-out: GI
Candida albicans [35] = test: Antifungal activity against Candida albicans ATCC 90028 assessed as planktonic growth inhibition at 1.24 uM after 48 hrs by M27-A3 protocol based method relative to control; conditions: ATCC 90028, 48 h, read-out: GI
Candida albicans [36] = test: Antifungal activity against Candida albicans ATCC 90028 assessed as planktonic growth inhibition at 39.77 uM after 48 hrs by M27-A3 protocol based method relative to control; conditions: ATCC 90028, 48 h, read-out: GI
Candida albicans [37] = test: Antifungal activity against Candida albicans ATCC 90028 assessed as planktonic growth inhibition at 0.62 uM after 48 hrs by M27-A3 protocol based method relative to control; conditions: ATCC 90028, 48 h, read-out: GI
Candida albicans [38] = test: Antifungal activity against Candida albicans ATCC 90028 assessed as planktonic growth inhibition at 2.49 uM after 48 hrs by M27-A3 protocol based method relative to control; conditions: ATCC 90028, 48 h, read-out: GI

Clc1ccc(-c2nnn(CCCN3CCCC3c3ccccc3)n2)cc1 (stereo unspecified)
inhibition of growth at 10.87 µM (Candida albicans [1]): 99.2%
inhibition of growth at 21.75 µM (Candida albicans [2]): 99.2%
inhibition of growth at 0.08 µM (Candida albicans [3]): 99.3%
inhibition of growth at 5.44 µM (Candida albicans [4]): 99.3%
log(activity) (Candida albicans [5]): -0.5
inhibition of growth at 1.36 µM (Candida albicans [6]): 99.4%
inhibition of growth at 2.72 µM (Candida albicans [7]): 99.4%
inhibition of growth at 0.34 µM (Candida albicans [8]): 99.3%
inhibition of growth at 0.17 µM (Candida albicans [9]): 99.3%
inhibition of growth at 43.49 µM (Candida albicans [10]): 99.1%
inhibition of growth at 0.68 µM (Candida albicans [11]): 99.3%

Cc1cccc(C2CCCN2CCCn2nnc(-c3ccc(Cl)cc3)n2)c1 (stereo unspecified)
inhibition of growth at 0.33 µM (Candida albicans [12]): 99.3%
inhibition of growth at 10.47 µM (Candida albicans [13]): 98.9%
inhibition of growth at 0.08 µM (Candida albicans [3]): 99.3%
inhibition of growth at 5.24 µM (Candida albicans [14]): 99.3%
inhibition of growth at 0.65 µM (Candida albicans [15]): 99.3%
log(activity) (Candida albicans [5]): -0.4
inhibition of growth at 0.16 µM (Candida albicans [16]): 99.3%
inhibition of growth at 20.95 µM (Candida albicans [17]): 98.8%
inhibition of growth at 41.9 µM (Candida albicans [18]): 98.9%
inhibition of growth at 2.62 µM (Candida albicans [19]): 99.3%
inhibition of growth at 1.31 µM (Candida albicans [20]): 99.3%

Cc1ccc(C2CCCN2CCCn2nnc(-c3ccccc3Cl)n2)cc1 (stereo unspecified)
inhibition of growth at 0.33 µM (Candida albicans [12]): 99.2%
inhibition of growth at 10.47 µM (Candida albicans [13]): 99.5%
inhibition of growth at 0.08 µM (Candida albicans [3]): 98.8%
inhibition of growth at 5.24 µM (Candida albicans [14]): 99.4%
inhibition of growth at 0.65 µM (Candida albicans [15]): 99.2%
log(activity) (Candida albicans [5]): -0.2
inhibition of growth at 0.16 µM (Candida albicans [16]): 98.9%
inhibition of growth at 20.95 µM (Candida albicans [17]): 99.5%
inhibition of growth at 41.9 µM (Candida albicans [18]): 99.6%
inhibition of growth at 2.62 µM (Candida albicans [19]): 99.3%
inhibition of growth at 1.31 µM (Candida albicans [20]): 99.2%

Cc1ccc(-c2nnn(CCCN3CCCC3c3ccc(Cl)cc3)n2)cc1 (stereo unspecified)
inhibition of growth at 0.33 µM (Candida albicans [12]): 99.2%
inhibition of growth at 10.47 µM (Candida albicans [13]): 99.4%
inhibition of growth at 0.08 µM (Candida albicans [3]): 99.4%
inhibition of growth at 5.24 µM (Candida albicans [14]): 99%
inhibition of growth at 0.65 µM (Candida albicans [15]): 99.1%
log(activity) (Candida albicans [5]): -0.4
inhibition of growth at 0.16 µM (Candida albicans [16]): 99.5%
inhibition of growth at 20.95 µM (Candida albicans [17]): 99.2%
inhibition of growth at 41.9 µM (Candida albicans [18]): 98.8%
inhibition of growth at 2.62 µM (Candida albicans [19]): 99.3%
inhibition of growth at 1.31 µM (Candida albicans [20]): 99.2%

Cc1ccc(C2CCCN2CCCn2nnc(-c3ccccc3)n2)cc1 (stereo unspecified)
inhibition of growth at 46.05 µM (Candida albicans [21]): 99%
inhibition of growth at 0.36 µM (Candida albicans [22]): 99%
inhibition of growth at 0.18 µM (Candida albicans [23]): 99.3%
inhibition of growth at 0.72 µM (Candida albicans [24]): 99.3%
inhibition of growth at 1.44 µM (Candida albicans [25]): 99.2%
log(activity) (Candida albicans [5]): -0.6
inhibition of growth at 0.09 µM (Candida albicans [26]): 98.9%
inhibition of growth at 11.51 µM (Candida albicans [27]): 99.5%
inhibition of growth at 23.02 µM (Candida albicans [28]): 99%
inhibition of growth at 5.76 µM (Candida albicans [29]): 99.2%
inhibition of growth at 2.88 µM (Candida albicans [30]): 99.2%

Clc1ccc(C2CCCN2CCCn2nnc(-c3ccccc3Cl)n2)cc1 (stereo unspecified)
inhibition of growth at 19.88 µM (Candida albicans [31]): 99.5%
inhibition of growth at 4.97 µM (Candida albicans [32]): 99.3%
inhibition of growth at 0.31 µM (Candida albicans [33]): 99%
inhibition of growth at 0.08 µM (Candida albicans [3]): 98.8%
inhibition of growth at 9.94 µM (Candida albicans [34]): 99.4%
inhibition of growth at 1.24 µM (Candida albicans [35]): 99.2%
log(activity) (Candida albicans [5]): -0.4
inhibition of growth at 39.77 µM (Candida albicans [36]): 99.6%
inhibition of growth at 0.16 µM (Candida albicans [16]): 98.9%
inhibition of growth at 0.62 µM (Candida albicans [37]): 99.2%
inhibition of growth at 2.49 µM (Candida albicans [38]): 99.3%
